According to the supplement of paper PMC10307832:

Experiments:
Assay in all cases: relative viability (nuclei count vs DMSO), 5 days (fraction); higher = more cells survive
Quizartinib + OSI-027 = compound: CC(C)(C)c1cc(NC(=O)Nc2ccc(-c3cn4c(n3)sc3cc(OCCN5CCOCC5)ccc34)cc2)no1 [Quizartinib] + COc1cccc2cc(-c3nc([C@H]4CC[C@H](C(=O)O)CC4)n4ncnc(N)c34)[nH]c12 [OSI-027] (partner 0.5 µM)
Outline: (§1)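 After 5 days of treatment, lung cancer cells in 1536-well plates were fixed and stained in a single step (final 0.05% Triton X-100, 1% formaldehyde, 1 ug/ml Hoechst) and their nuclei counted on 4× images. Treatment had been applied by pin tool the day after seeding as one drug alone or as a fixed anchor-drug dose with five library-drug doses (not always all listed) in √10 steps. Relative viability is the nuclei count of treated wells divided by that of vehicle wells, and values are medians of duplicate plates.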

Quizartinib + Decitabine = compound: CC(C)(C)c1cc(NC(=O)Nc2ccc(-c3cn4c(n3)sc3cc(OCCN5CCOCC5)ccc34)cc2)no1 [Quizartinib] + Nc1ncn([C@H]2C[C@H](O)[C@@H](CO)O2)c(=O)n1 [Decitabine] (partner 2 µM)
Outline: as §1

Quizartinib + Crizotinib = compound: CC(C)(C)c1cc(NC(=O)Nc2ccc(-c3cn4c(n3)sc3cc(OCCN5CCOCC5)ccc34)cc2)no1 [Quizartinib] + C[C@@H](Oc1cc(-c2cnn(C3CCNCC3)c2)cnc1N)c1c(Cl)ccc(F)c1Cl [Crizotinib] (partner 1 µM)
Outline: as §1

YM155 + OSI-027 = compound: COCC[n+]1c2c(n(Cc3cnccn3)c1C)C(=O)c1ccccc1C2=O [YM155] + COc1cccc2cc(-c3nc([C@H]4CC[C@H](C(=O)O)CC4)n4ncnc(N)c34)[nH]c12 [OSI-027] (partner 0.5 µM)
Outline: as §1

| Cell Line | relative viability (Quizartinib + OSI-027; first compound 0.001 µM) | relative viability (Quizartinib + OSI-027; first compound 0.003162 µM) | relative viability (Quizartinib + OSI-027; first compound 0.01 µM) | relative viability (Quizartinib + OSI-027; first compound 0.03162 µM) | relative viability (Quizartinib + OSI-027; first compound 0.1 µM) | relative viability (Quizartinib + Decitabine; first compound 0.001 µM) | relative viability (Quizartinib + Decitabine; first compound 0.003162 µM) | relative viability (Quizartinib + Decitabine; first compound 0.01 µM) | relative viability (Quizartinib + Decitabine; first compound 0.03162 µM) | relative viability (Quizartinib + Decitabine; first compound 0.1 µM) | relative viability (Quizartinib + Crizotinib; first compound 0.001 µM) | relative viability (Quizartinib + Crizotinib; first compound 0.01 µM) | relative viability (Quizartinib + Crizotinib; first compound 0.03162 µM) | relative viability (Quizartinib + Crizotinib; first compound 0.1 µM) | relative viability (YM155 + OSI-027; first compound 0.002 µM) | relative viability (YM155 + OSI-027; first compound 0.006325 µM) | relative viability (YM155 + OSI-027; first compound 0.02 µM) | relative viability (YM155 + OSI-027; first compound 0.06325 µM) | relative viability (Quizartinib + Crizotinib; first compound 0.003162 µM) |
| --- | --- | --- | --- | --- | --- | --- | --- | --- | --- | --- | --- | --- | --- | --- | --- | --- | --- | --- | --- |
| NCI-H727 | 0.412 | 0.624 | 0.539 | 0.869 | 0.699 | 0.781 | 0.829 | 0.933 | 0.831 | 1.29 | 0.74 | 0.939 | 0.772 | 0.662 | 0.473 | 0.612 | 0.703 | 0.595 |  |
| NCI-H838 | 0.346 | 0.4 | 0.299 | 0.38 | 0.375 | 0.418 | 0.48 | 0.478 | 0.466 | 0.388 | 0.787 | 0.767 | 0.691 | 0.368 | 0.361 | 0.406 | 0.421 | 0.438 | 0.878 |
| NCI-H1355 | 0.361 | 0.449 | 0.389 | 0.377 | 0.4 | 0.346 | 0.349 | 0.338 | 0.331 | 0.36 | 1.03 | 1.11 | 0.99 | 1.15 | 0.386 | 0.394 | 0.454 | 0.47 | 1.01 |
| NCI-H1437 | 0.789 | 0.868 | 0.853 | 0.956 | 0.747 | 0.402 | 0.54 | 0.567 | 0.536 | 0.499 | 0.822 | 0.906 | 0.687 | 0.608 | 0.838 | 0.844 | 0.871 | 0.783 | 0.849 |
| NCI-H1650 | 0.414 | 0.738 | 0.598 |  | 0.494 | 0.345 | 0.364 | 0.458 |  | 0.393 | 0.891 | 1.23 |  | 0.881 | 0.677 | 0.783 | 0.594 | 0.613 | 0.957 |
| NCI-H1651 | 0.672 | 0.584 | 0.637 | 0.632 | 0.742 | 0.626 | 0.642 | 0.667 | 0.612 | 0.626 | 0.757 | 0.877 | 0.86 | 0.896 | 0.685 | 0.774 | 0.88 | 0.585 | 0.9 |
| NCI-H1666 | 0.755 | 0.883 | 0.856 | 0.764 | 0.857 | 0.649 | 0.723 | 0.777 | 0.717 | 0.783 | 0.917 | 1.07 | 0.777 | 0.974 | 0.767 | 0.911 | 0.859 | 0.841 | 0.829 |
| NCI-H1734 | 0.522 | 0.543 | 0.636 | 0.555 | 0.611 | 0.504 | 0.459 | 0.656 | 0.499 | 0.485 | 0.582 | 0.854 | 0.602 | 0.549 | 0.599 | 0.586 | 0.616 | 0.684 | 0.656 |
